Source: ChEMBL document CHEMBL5042474, “Structure-Guided Discovery of Potent and Selective DYRK1A Inhibitors” (J Med Chem, 2021)

Tests used:
A2780 [1] = experiment: cells; settings: Homo sapiens
A2780 [2] = experiment: Antitumor activity against human A2780 cells xenografted in BALB/c […] mouse assessed as reduction in DYRK1A autophosphorylation of S520 residue at 37.5 mg/kg, po measured after 6 hrs by western blotting analysis relative to control; format: functional; set-up: scale not given: the % may be the effect or the level left
A2780 [3] = experiment: Antitumor activity against human A2780 cells xenografted in BALB/c nu/nu mouse assessed as reduction in DYRK1A autophosphorylation of S520 residue at 9.375 mg/kg, po measured after 2 hrs by western blotting analysis relative to control; format: functional; set-up: scale not given: the % may be the effect or the level left
[4] = molecular target: Ribosomal protein S6 kinase alpha-4 (Homo sapiens) (UniProt O75676); experiment: Residual activity of RPS6KA4 (unknown origin) at 10 nM using Ulight-MBP as substrate and ATP as co-substrate incubated for 40 mins and measured after 1 hr by TR-FRET assay relative to control; settings: time 100.0 min
A2780 [5] = experiment: Antitumor activity against human A2780 cells xenografted in BALB/c nu/nu mouse assessed as reduction in DYRK1A autophosphorylation of S520 residue at 18.75 mg/kg, po measured after 2 hrs by western blotting analysis relative to control; format: functional; set-up: scale not given: the % may be the effect or the level left
A2780 [6] = experiment: Antitumor activity against human A2780 cells xenografted in Balb/c mouse assessed as inhibition of tumor growth at 75 mg/kg, po bid for 14 days relative to control; format: functional; settings: 336 h, time 14 day, read-out: TGI
A2780 [7] = experiment: Antitumor activity against human A2780 cells xenografted in BALB/c […] mouse assessed as reduction in DYRK1A autophosphorylation of S520 residue at 75 mg/kg, po measured after 2 hrs by western blotting analysis relative to control; format: functional; set-up: scale not given: the % may be the effect or the level left
RS4-11 [8] = experiment: Antitumor activity against human RS4-11 cells xenografted in BALB/c nu/nu mouse assessed as reduction in DYRK1A autophosphorylation of S520 residue at 3.125 mg/kg, po measured after 2 hrs by western blotting analysis relative to control; format: functional; set-up: scale not given: the % may be the effect or the level left
[9] = molecular target: T1, Dual specificity tyrosine-phosphorylation-regulated kinase 2 (Homo sapiens, UniProt Q92630); experiment: Inhibition of DYRK2 (unknown origin) using Ulight-MBP as substrate and ATP as co-substrate incubated for 40 mins and measured after 1 hr by TR-FRET assay
T1 sequence (Q92630 whole entry): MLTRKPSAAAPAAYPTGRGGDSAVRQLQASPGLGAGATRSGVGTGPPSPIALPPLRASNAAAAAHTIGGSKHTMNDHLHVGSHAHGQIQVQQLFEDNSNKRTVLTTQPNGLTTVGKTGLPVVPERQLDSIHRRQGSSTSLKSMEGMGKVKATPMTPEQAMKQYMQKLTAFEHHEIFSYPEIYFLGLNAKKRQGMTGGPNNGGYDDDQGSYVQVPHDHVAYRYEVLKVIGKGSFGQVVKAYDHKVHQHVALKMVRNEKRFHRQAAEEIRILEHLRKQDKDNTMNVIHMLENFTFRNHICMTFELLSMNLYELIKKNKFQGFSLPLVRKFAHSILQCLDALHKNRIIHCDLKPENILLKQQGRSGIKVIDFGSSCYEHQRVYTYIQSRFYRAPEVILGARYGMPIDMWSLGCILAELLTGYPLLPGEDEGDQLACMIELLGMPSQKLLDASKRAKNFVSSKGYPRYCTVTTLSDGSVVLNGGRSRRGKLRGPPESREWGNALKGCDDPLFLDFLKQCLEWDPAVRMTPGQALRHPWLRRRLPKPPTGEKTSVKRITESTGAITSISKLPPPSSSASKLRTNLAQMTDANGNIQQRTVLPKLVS

A2780 [10] = experiment: Antitumor activity against human A2780 cells xenografted in Balb/c mouse assessed as inhibition of tumor growth at 4.75 mg/kg, po bid for 14 days relative to control; format: functional; settings: 336 h, time 14 day, read-out: TGI
[11] = Toxicity in Balb/c nude mouse xenografted with human A2780 cells assessed as decrease in body weight at 37.5 mg/kg, po bid for 14 days relative to control; format: organism-based; set-up: scale not given: the % may be the effect or the level left; settings: in vivo, 336 h, time 14 day
A2780 [12] = experiment: Antitumor activity against human A2780 cells xenografted in BALB/c nu/nu mouse assessed as reduction in DYRK1A autophosphorylation of S520 residue at 37.5 mg/kg, po measured after 2 hrs by western blotting analysis relative to control; format: functional; set-up: scale not given: the % may be the effect or the level left
A2780 [13] = experiment: Antitumor activity against human A2780 cells xenografted in Balb/c mouse assessed as inhibition of tumor growth at 9.5 mg/kg, po bid for 14 days relative to control; format: functional; settings: 336 h, time 14 day, read-out: TGI
[14] = molecular target: Dual specificity protein kinase CLK1 (Homo sapiens) (UniProt P49759); experiment: Residual activity of CLK1 (unknown origin) at 10 nM using Ulight-MBP as substrate and ATP as co-substrate incubated for 40 mins and measured after 1 hr by TR-FRET assay relative to control; settings: time 100.0 min
RS4-11 [15] = experiment: Antitumor activity against human RS4-11 cells xenografted in BALB/c nu/nu mouse assessed as reduction in DYRK1A autophosphorylation of S520 residue at 25 mg/kg, po measured after 2 hrs by western blotting analysis relative to control; format: functional; set-up: scale not given: the % may be the effect or the level left
SK-N-MC = experiment: cells; settings: Homo sapiens, 120 h
A2780 [16] = experiment: cells; settings: Homo sapiens, A2780, 120 h
[17] = molecular target: Casein kinase I isoform gamma-1 (Homo sapiens) (UniProt Q9HCP0); experiment: Residual activity of CSNK1G1 (unknown origin) at 10 nM using Ulight-MBP as substrate and ATP as co-substrate incubated for 40 mins and measured after 1 hr by TR-FRET assay relative to control; settings: time 100.0 min
[18] = molecular target: Dual specificity protein kinase CLK2 (Homo sapiens) (UniProt P49760); experiment: Residual activity of CLK2 (unknown origin) at 10 nM using Ulight-MBP as substrate and ATP as co-substrate incubated for 40 mins and measured after 1 hr by TR-FRET assay relative to control; settings: time 100.0 min
[19] = molecular target: Dual specificity protein kinase CLK4 (Homo sapiens) (UniProt Q9HAZ1); experiment: Residual activity of CLK4 (unknown origin) at 10 nM using Ulight-MBP as substrate and ATP as co-substrate incubated for 40 mins and measured after 1 hr by TR-FRET assay relative to control; settings: time 100.0 min
C-33-A = experiment: cells; settings: Homo sapiens
A2780 [20] = experiment: Antitumor activity against human A2780 cells xenografted in BALB/c […] mouse assessed as reduction in DYRK1A autophosphorylation of S520 residue at 75 mg/kg, po measured after 6 hrs by western blotting analysis relative to control; format: functional; set-up: scale not given: the % may be the effect or the level left
[21] = Oral bioavailability in BALB/c nu/nu mouse at 3 mg/kg; format: ADME, organism-based; settings: in vivo

Dual specificity protein kinase CLK1 (Homo sapiens), sequence (P49759 whole entry, looked up): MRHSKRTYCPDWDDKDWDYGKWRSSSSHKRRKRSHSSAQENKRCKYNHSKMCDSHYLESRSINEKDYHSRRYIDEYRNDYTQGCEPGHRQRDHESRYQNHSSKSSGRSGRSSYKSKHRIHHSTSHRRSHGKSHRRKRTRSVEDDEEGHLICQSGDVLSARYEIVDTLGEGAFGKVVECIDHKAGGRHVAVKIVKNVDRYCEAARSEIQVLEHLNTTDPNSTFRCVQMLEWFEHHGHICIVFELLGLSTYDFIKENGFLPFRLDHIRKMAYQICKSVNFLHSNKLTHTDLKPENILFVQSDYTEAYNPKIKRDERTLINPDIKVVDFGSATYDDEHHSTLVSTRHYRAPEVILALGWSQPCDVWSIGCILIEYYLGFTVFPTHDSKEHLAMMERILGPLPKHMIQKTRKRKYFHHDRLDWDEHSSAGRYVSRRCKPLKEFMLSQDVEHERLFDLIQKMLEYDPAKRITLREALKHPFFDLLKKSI
Ribosomal protein S6 kinase alpha-4 (Homo sapiens), sequence (O75676 whole entry, looked up): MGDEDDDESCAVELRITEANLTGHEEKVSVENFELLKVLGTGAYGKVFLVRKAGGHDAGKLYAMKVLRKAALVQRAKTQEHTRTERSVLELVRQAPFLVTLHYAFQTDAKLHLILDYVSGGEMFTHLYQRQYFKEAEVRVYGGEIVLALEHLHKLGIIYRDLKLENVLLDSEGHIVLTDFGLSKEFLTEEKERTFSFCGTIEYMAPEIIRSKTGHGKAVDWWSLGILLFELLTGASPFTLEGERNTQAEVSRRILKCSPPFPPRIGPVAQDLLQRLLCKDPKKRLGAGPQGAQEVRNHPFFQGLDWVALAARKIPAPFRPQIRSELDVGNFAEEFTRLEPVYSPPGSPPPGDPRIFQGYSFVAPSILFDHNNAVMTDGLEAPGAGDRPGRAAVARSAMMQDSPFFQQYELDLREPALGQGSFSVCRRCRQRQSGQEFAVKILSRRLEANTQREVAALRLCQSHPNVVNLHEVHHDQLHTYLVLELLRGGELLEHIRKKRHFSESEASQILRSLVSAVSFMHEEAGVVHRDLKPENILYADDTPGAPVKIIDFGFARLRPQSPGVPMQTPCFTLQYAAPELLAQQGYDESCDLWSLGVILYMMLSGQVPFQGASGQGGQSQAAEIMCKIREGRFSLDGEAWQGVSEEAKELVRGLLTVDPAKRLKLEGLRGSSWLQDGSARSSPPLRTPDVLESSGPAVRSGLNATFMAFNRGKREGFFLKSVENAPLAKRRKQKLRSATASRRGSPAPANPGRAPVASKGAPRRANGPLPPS
Casein kinase I isoform gamma-1 (Homo sapiens), sequence (Q9HCP0 whole entry, looked up, canonical isoform): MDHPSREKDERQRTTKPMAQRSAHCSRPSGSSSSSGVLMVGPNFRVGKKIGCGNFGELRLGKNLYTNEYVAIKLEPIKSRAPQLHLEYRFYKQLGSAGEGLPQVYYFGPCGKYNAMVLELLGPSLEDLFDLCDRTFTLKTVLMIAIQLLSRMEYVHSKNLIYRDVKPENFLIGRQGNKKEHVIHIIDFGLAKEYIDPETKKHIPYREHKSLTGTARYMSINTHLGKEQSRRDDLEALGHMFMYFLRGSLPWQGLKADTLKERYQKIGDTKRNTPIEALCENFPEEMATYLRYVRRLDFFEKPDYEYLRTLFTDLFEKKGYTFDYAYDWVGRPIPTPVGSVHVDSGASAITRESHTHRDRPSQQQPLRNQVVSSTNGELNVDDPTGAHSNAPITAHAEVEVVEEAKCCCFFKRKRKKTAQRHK
Dual specificity protein kinase CLK2 (Homo sapiens), sequence (P49760 whole entry, looked up): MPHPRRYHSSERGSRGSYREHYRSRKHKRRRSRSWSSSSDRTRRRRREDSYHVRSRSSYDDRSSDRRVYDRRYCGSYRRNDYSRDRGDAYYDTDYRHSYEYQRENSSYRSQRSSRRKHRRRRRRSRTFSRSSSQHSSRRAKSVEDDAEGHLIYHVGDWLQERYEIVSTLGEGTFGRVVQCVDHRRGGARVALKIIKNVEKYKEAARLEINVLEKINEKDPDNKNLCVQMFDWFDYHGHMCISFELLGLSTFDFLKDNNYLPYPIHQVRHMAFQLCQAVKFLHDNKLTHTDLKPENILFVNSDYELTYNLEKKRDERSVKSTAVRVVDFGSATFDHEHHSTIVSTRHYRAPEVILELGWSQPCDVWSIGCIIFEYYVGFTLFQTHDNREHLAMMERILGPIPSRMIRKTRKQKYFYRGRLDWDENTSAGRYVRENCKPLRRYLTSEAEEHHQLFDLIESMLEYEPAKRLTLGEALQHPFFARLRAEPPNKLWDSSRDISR
Dual specificity protein kinase CLK4 (Homo sapiens), sequence (Q9HAZ1 whole entry, looked up): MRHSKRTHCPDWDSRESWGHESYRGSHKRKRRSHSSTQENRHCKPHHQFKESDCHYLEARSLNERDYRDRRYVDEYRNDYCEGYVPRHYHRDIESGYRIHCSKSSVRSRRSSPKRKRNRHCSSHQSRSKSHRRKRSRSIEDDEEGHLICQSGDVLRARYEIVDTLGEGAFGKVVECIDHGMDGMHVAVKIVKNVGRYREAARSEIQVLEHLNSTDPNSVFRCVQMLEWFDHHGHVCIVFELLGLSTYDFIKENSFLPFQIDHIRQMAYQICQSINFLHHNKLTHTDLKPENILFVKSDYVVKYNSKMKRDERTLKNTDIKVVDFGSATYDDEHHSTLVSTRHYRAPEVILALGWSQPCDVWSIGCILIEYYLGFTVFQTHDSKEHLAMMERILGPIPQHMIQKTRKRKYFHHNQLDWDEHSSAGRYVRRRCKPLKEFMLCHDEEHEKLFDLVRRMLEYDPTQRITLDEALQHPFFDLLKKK

- IC50 (A2780 [1]): 126 nM
- residual activity [4]: 61%
- IC50 [9]: 3 nM
- residual activity [14]: 48%
- IC50 (SK-N-MC): 958 nM
- IC50 (A2780 [16]): 1540 nM
- residual activity [17]: 69%
- residual activity [18]: 40%
- residual activity [19]: 52%
- IC50 (C-33-A): 157 nM
- bioavailability [21]: 39%
Structure (SMILES): Cc1nc2ccc(-c3cc(N)nc(N)c3)nc2n1C1CC1
- Activity (A2780 [2]): 95%
- Activity (A2780 [3]): 60%
- Activity (A2780 [5]): 82%
- inhibition in vivo at 75 mg/kg (A2780 [6]): 92%
- Activity (A2780 [7]): 80%
- Activity (RS4-11 [8]): 51%
- inhibition in vivo at 4.75 mg/kg (A2780 [10]): 28%
- Activity [11]: 9.7%
- Activity (A2780 [12]): 82%
- inhibition in vivo at 9.5 mg/kg (A2780 [13]): 28%
- Activity (RS4-11 [15]): 87%
- Activity (A2780 [20]): 92%
